Source: US20040029823A1, “Antisense oligonucleotide compositions and methods for the modulation of JNK proteins” (priority 1997, published 2004)
Strand notation (5' to 3'): a small letter for the sugar, then the base; units joined by * are phosphorothioate-linked, units joined directly phosphodiester-linked; [ ] holds rarer units or linkages, { } end groups; capitals alone tell only the bases. e = 2'-O-(2-methoxyethyl) (MOE); [5mC] = 5-methylcytosine; d = 2'-deoxy (DNA)

Assays:
rat JNK2 mRNA = test: Northern assay of rat JNK2 (p54a) mRNA in A10 aortic smooth muscle cells; format: cell-based; parameters: inhibition of rat JNK2 mRNA levels / % INHIBITION: concentration or dose not given beside the values; settings: rat JNK2 (p54a) mRNA in A10 cells; for % EXPRESSION: relative to LIPOFECTIN-only control
Method: In order to study the role of JNK proteins in animal models, oligonucleotides targeted to the genes encoding JNK1, JNK2 and JNK3 of Rattus norvegicus were prepared. These oligonucleotides are 2′-methoxyethoxy, phosphodiester/2′-hydroxyl, phosphorothioate/2′-methoxyethoxy, phosphodiester “gapmers” in which every cytosine residue is 5-methylcytosine (m5c). These antisense compounds were synthesized according to the methods of the disclosure. Certain of these oligonucleotides are additionally specifically hybridizable to JNK genes from other species as indicated herein. The oligonucleotides described in this Example were tested for their ability to modulate rat JNK mRNA levels essentially according to the methods described in the preceding Examples, with the exceptions that the cell line used was rat A10 aortic smooth muscle cells (ATCC No. ATCC CRL-1476) and the probes used were specific for rat JNK1, JNK2 or JNK3 (see infra). A10 cells were grown and treated with oligonucleotides essentially as described by (Cioffi et al. Mol. Pharmacol., 1997, 51, 383).
These antisense compounds were tested for their ability to modulate levels of p54? (JNK1) and p54a (JNK2) mRNA in A10 cells via Northern assays. Due to the high degree of sequence identity between the human and rat genes, radiolabeled human JNK1 (Example 3) and JNK2 (Example 4) cDNAs functioned as specific probes for the rat homologs.
These antisense compounds were tested for their ability to modulate levels of p54a (JNK2) mRNA in A10 cells using the radiolabeled human JNK2 cDNA as a probe as described supra. Oligonucleotides showing levels of inhibition from ≧ about 60% to about 100% of rat JNK2 mRNA levels include ISIS Nos. 18254, 18255, 18257, 18258, 18259, 18260 and 18265 (SEQ ID NOS: 125, 126, 128, 129, 130, 131 and 136, respectively). These oligonucleotides are preferred embodiments of the invention for modulating rat JNK2 expression. […] These oligonucleotides are thus more preferred embodiments of the invention for modulating rat JNK2 expression. ISIS 18259 (SEQ ID NO: 130) was chosen for use in further studies (infra).

JNK2 mRNA = test: Northern assay of JNK2 mRNA expression in A549 cells; format: cell-based, human; settings: for % EXPRESSION: relative to LIPOFECTIN-only control
Method: In order to evaluate the activity of potential JNK-modulating oligonucleotides, human lung carcinoma cell line A549 (American Type Culture Collection, Rockville, Md. No. ATCC CCL-185) cells or other cell lines as indicated in the Examples, were grown and treated with oligonucleotides or control solutions as detailed below. After harvesting, cellular extracts were prepared and examined for specific JNK mRNA levels or JNK protein levels (i.e., Northern or Western assays, respectively). In all cases, “% expression” refers to the amount of JNK-specific signal in an oligonucleotide-treated cell relative to an untreated cell (or a cell treated with a control solution that lacks oligonucleotide), and “% inhibition” is calculated as
100%−% Expression =% Inhibition.
Northern Assays: The mRNA expression of each JNK protein was determined by using a nucleic acid probe specifically hybridizable thereto. Nucleic acid probes specific for JNK1, JNK2 and JNK3 are described in Examples 3, 4 and 5, respectively. The probes were radiolabelled by means well known in the art (see, e.g., Short Protocols in Molecular Biology, 2nd Ed., Ausubel et al., Eds., John Wiley & Sons, New York, 1992, pages 3-11 to 2-3-44 and 4-17 to 4-18; Ruth, Chapter 6 In: Methods in Molecular Biology, Vol. 26: Protocols for Oligonucleotide Conjugates, Agrawal, ed., Humana Press Inc., Totowa, N.J., 1994, pages 167-185; and Chapter 10 In: Molecular Cloning: A Laboratory Manual, 2nd Ed., Sambrook et al., Eds., pages 10.1-10.70). The blots were stripped and reprobed with a ^32P-labeled glyceraldehyde 3-phosphate dehydrogenase (G3PDH) probe (Clontech Laboratories, Inc., Palo Alto, Calif.) in order to confirm equal loading of RNA and to allow the levels of JNK transcripts to be normalized with regard to the G3PDH signals.
A549 cells were grown in T-75 flasks until 80-90% confluent. At this time, the cells were washed twice with 10 mL of media (DMEM), followed by the addition of 5 mL of DMEM containing 20 μg/mL of LIPOFECTIN™ (i.e., 1:1 (w/w) DOTMA/DOPE, Life Technologies, Gaithersburg, Md.; DOTMA=N-[1-(2,3-dioleyoxy)propyl]-N,N,N-trimethylammonium chloride; DOPE=dioleoyl phosphatidylethanolamine). The oligonucleotides were added from a 10 μM stock solution to a final concentration of 400 nM, and the two solutions were mixed by swirling the flasks. As a control, cells were treated with LIPOFECTIN™ without oligonucleotide under the same conditions and for the same times as the oligonucleotide-treated samples. After 4 hours at 37° C., the medium was replaced with fresh DMEM containing 10% serum. The cells were allowed to recover for 18 hours. Total cellular RNA was then extracted in guanidinium, subject to gel electrophoresis and transferred to a filter according to techniques known in the art (see, e.g., Chapter 7 In: Molecular Cloning: A Laboratory Manual, 2nd Ed., Sambrook et al., Eds., pages 7.1-7.87, and Short Protocols in Molecular Biology, 2nd Ed., Ausubel et al., Eds., John Wiley & Sons, New York, 1992, pages 2-24 to 2-30 and 4-14 to 4-29). Filters were typically hybridized overnight to a probe specific for the particular JNK gene of interest in hybridization buffer (25 mM KPO4, pH 7.4; 5×SSC; 5× Denhardt's solution, 100 μg/ml Salmon sperm DNA and 50% formamide) (Alahari et al., Nucl. Acids Res., 1993, 21, 4079). This was followed by two washes with 1×SSC, 0.1% SDS and two washes with 0.25×SSC, 0.1% SDS. Hybridizing bands were visualized by exposure to X-OMAT AR film and quantitated using a PHOSPHORIMAGER™ essentially according to the manufacturer's instructions (Molecular Dynamics, Sunnyvale, Calif.)
B. JNK2-specific probes: In initial screenings of a set of oligonucleotides derived from the JNK2 sequence (Table 9) for biological activity, a cDNA clone of JNK2 (Kallunki et al., Genes & Development, 1994, 8, 2996) was radiolabeled and used as a JNK2-specific probe in Northern blots. […]

[1] = JNK2 mRNA dose response, 100 nM
[2] = JNK2 mRNA dose response, 200 nM
[3] = JNK2 mRNA dose response, 400 nM
[4] = JNK2 mRNA time course, t=0 h after 4 hour treatment
[5] = JNK2 mRNA, A549 cells, 400 nM oligonucleotide
[6] = JNK2 mRNA, chemically modified oligonucleotides, dose 100 nM
[7] = JNK2 mRNA, chemically modified oligonucleotides, dose 400 nM
[8] = JNK2 mRNA, A549 cells, 400 nM oligonucleotide, 100% - % expression

10260 (antisense eAeTe[5mC]eTeG*d[5mC]*dG*dA*dG*dG*dT*dT*dT*d[5mC]*dA*eTe[5mC]eGeGe[5mC]) [compound 10260]
% INHIBITION (rat JNK2 mRNA): 59%
% EXPRESSION (rat JNK2 mRNA): 41%

12560 (antisense GTCCGGGCCAGGCCAAAGTC; DNA, all phosphorothioate, methylation of C not given here) [compound 12560]
Normalized % Control (JNK2 mRNA; JNK2 mRNA dose response, 50 nM): 68.1%
Normalized % Control (JNK2 mRNA; [1]): 50.0%
Normalized % Control (JNK2 mRNA; [2]): 25.1%
Normalized % Control (JNK2 mRNA; [3]): 14.2%
% INHIBITION (JNK2 mRNA; [4]): 79.8%
Normalized % Control (JNK2 mRNA; [4]): 20.2%
% INHIBITION (JNK2 mRNA; JNK2 mRNA time course, t=4 h): 88.9%
Normalized % Control (JNK2 mRNA; JNK2 mRNA time course, t=4 h): 11.1%
% INHIBITION (JNK2 mRNA; JNK2 mRNA time course, t=12 h): 78.2%
Normalized % Control (JNK2 mRNA; JNK2 mRNA time course, t=12 h): 21.8%
% INHIBITION (JNK2 mRNA; JNK2 mRNA time course, t=48 h): 57.3%
Normalized % Control (JNK2 mRNA; JNK2 mRNA time course, t=48 h): 42.7%
% INHIBITION (JNK2 mRNA; JNK2 mRNA time course, t=72 h): (0.0) %
Normalized % Control (JNK2 mRNA; JNK2 mRNA time course, t=72 h): 116.8%
% EXPRESSION (JNK2 mRNA; [5]): 11%
Normalized % Control (JNK2 mRNA; [6]): 62.1%
Normalized % Control (JNK2 mRNA; [7]): 31.4%

12561 (antisense dC*dA*dG*dG*dA*dT*dG*dA*dC*dT*dT*dC*dG*dG*dG*dC*dG*dC*dC*dC) [compound 12561]
% EXPRESSION (JNK2 mRNA; [5]): 60%
% INHIBITION (JNK2 mRNA; [8]): 40%

12562 (antisense dG*dC*dT*dC*dT*dC*dC*dC*dA*dT*dG*dA*dT*dG*dC*dA*dA*dC*dC*dC) [compound 12562]
% EXPRESSION (JNK2 mRNA; [5]): 89%
% INHIBITION (JNK2 mRNA; [8]): 11%

12563 (antisense dA*dT*dG*dG*dG*dT*dG*dA*dC*dG*dC*dA*dG*dA*dG*dC*dT*dT*dC*dG) [compound 12563]
% EXPRESSION (JNK2 mRNA; [5]): 22%

12564 (antisense dC*dT*dG*dC*dT*dG*dC*dA*dT*dC*dT*dG*dA*dA*dG*dG*dC*dT*dG*dA) [compound 12564]
% EXPRESSION (JNK2 mRNA; [5]): 28%

12565 (antisense dT*dG*dA*dG*dA*dA*dG*dG*dA*dG*dT*dG*dG*dC*dG*dT*dT*dG*dC*dT) [compound 12565]
% EXPRESSION (JNK2 mRNA; [5]): 19%

12566 (antisense dT*dG*dC*dT*dG*dT*dC*dT*dG*dT*dG*dT*dC*dT*dG*dA*dG*dG*dC*dC) [compound 12566]
% EXPRESSION (JNK2 mRNA; [5]): 42%

12568 (antisense dC*dA*dT*dT*dT*dC*dA*dG*dG*dC*dC*dC*dA*dC*dG*dG*dA*dG*dG*dT) [compound 12568]
% EXPRESSION (JNK2 mRNA; [5]): 20%

12569 (antisense dG*dG*dT*dC*dT*dG*dA*dA*dT*dA*dG*dG*dG*dC*dA*dA*dG*dG*dC*dA) [compound 12569]
% EXPRESSION (JNK2 mRNA; [5]): 13%

12570 (antisense dG*dG*dG*dC*dA*dA*dG*dT*dC*dC*dA*dA*dG*dC*dA*dA*dG*dC*dA*dT) [compound 12570]
% EXPRESSION (JNK2 mRNA; [5]): 24%

14318 (sense GACTTTGGCCTGGCCCGGAC; DNA, all phosphorothioate, methylation of C not given here) [compound 14318]
Normalized % Control (JNK2 mRNA; JNK2 mRNA dose response, 50 nM): 87.1%
Normalized % Control (JNK2 mRNA; [1]): 89.8%
Normalized % Control (JNK2 mRNA; [2]): 92.1%
Normalized % Control (JNK2 mRNA; [3]): 99.6%

14319 (GTGCGCGCGAGCCCGAAATC; DNA, all phosphorothioate, methylation of C not given here) [compound 14319]
Normalized % Control (JNK2 mRNA; JNK2 mRNA dose response, 50 nM): 90.4%
Normalized % Control (JNK2 mRNA; [1]): 93.7%
Normalized % Control (JNK2 mRNA; [2]): 110.2%
Normalized % Control (JNK2 mRNA; [3]): 100.0%

15352 (antisense eG*eT*e[5mC]*e[5mC]*eG*eG*eG*e[5mC]*e[5mC]*eA*eG*eG*e[5mC]*e[5mC]*eA*eA*eA*eG*eT*e[5mC]) [compound 15352]
Normalized % Control (JNK2 mRNA; [6]): 132.4%
Normalized % Control (JNK2 mRNA; [7]): 158.4%

15354 (antisense eGeTe[5mC]e[5mC]eG*dG*dG*dC*dC*dA*dG*dG*dC*dC*eAeAeAeGeTe[5mC]) [compound 15354]
Normalized % Control (JNK2 mRNA; [6]): 38.3%
Normalized % Control (JNK2 mRNA; [7]): 17.1%
inhibition of JNK2 mRNA expression (JNK2 mRNA; chemically modified derivatives of ISIS 12560, 400 nM (text to Table 12)): approximately 80%

15355 (antisense eG*eT*e[5mC]*e[5mC]*eG*eG*eG*e[5mC]*e[5mC]*eA*eG*dG*dC*dC*dA*dA*dA*dG*dT*dC) [compound 15355]
Normalized % Control (JNK2 mRNA; [6]): 61.3%
Normalized % Control (JNK2 mRNA; [7]): 29.1%

15356 (antisense dG*dT*dC*dC*dG*dG*dG*dC*dC*eA*eG*eG*e[5mC]*e[5mC]*eA*eA*eA*eG*eT*e[5mC]) [compound 15356]
Normalized % Control (JNK2 mRNA; [6]): 38.6%
Normalized % Control (JNK2 mRNA; [7]): 11.0%

15357 (antisense GTCCGGGCCAGGCCAAAGTC; wingmer: 5' deoxy phosphorothioate wing, 3' MOE phosphodiester wing, wing lengths not given here) [compound 15357]
Normalized % Control (JNK2 mRNA; [6]): 42.8%
Normalized % Control (JNK2 mRNA; [7]): 13.7%

15358 (antisense eGeTe[5mC]e[5mC]eGeGeGe[5mC]e[5mC]eAeG*dG*dC*dC*dA*dA*dA*dG*dT*e[5mC]) [compound 15358]
Normalized % Control (JNK2 mRNA; [6]): 47.4%
Normalized % Control (JNK2 mRNA; [7]): 29.4%

18254 (antisense eTe[5mC]eAeTeG*dA*dT*dG*dT*dA*dG*dT*dG*dT*d[5mC]*eAeTeAe[5mC]eA) [compound 18254]
% INHIBITION (rat JNK2 mRNA): 80%
% EXPRESSION (rat JNK2 mRNA): 20%

GTC-CGG-GCC-AGG-CCA-AAG-TC (GTCCGGGCCAGGCCAAAGTC; chemistry not given here) [ISIS 12560]
% INHIBITION (JNK2 mRNA; JNK2 mRNA time course, t=12 h): greater than or equal to 80%
% INHIBITION (JNK2 mRNA; JNK2 mRNA time course, t=48 h): greater than or equal to 60%
